Results reported in PMC11812184, “Antimicrobial triazinedione inhibitors of the translocase MraY–protein E interaction site: synergistic effects with bacitracin imply a new mechanism of action” (RSC Medicinal Chemistry, 2025).
In brackets after ≈: the same amount, converted by molar mass.

Legend:
Bacillus subtilis W23 = test system: T1, Bacillus subtilis W23; assay: microbe, parasite or virus in culture; parameters: broth microdilution growth inhibition, OD595, overnight; MIC50 = concentration reducing growth by 50%; conditions: MIC50, 50% growth reduction
T1 construct: W23
Method: (§1) P. fluorescens Pf-5, E. coli (TOP10 or C43), B. subtilis (W23) or M. flavus colonies were isolated from an agar plate and inoculated in 5 mL of Luria-Bertani broth overnight at 37 °C. E. coli C43/pET28a-mraY was grown in Luria-Bertani media containing 50 μg mL^−1 kanamycin. […] Serial dilutions of 125, 62.5, 31.25, 15.63, 7.82, 3.90, 1.95 and 0.97 μg mL^−1 test compound were prepared. 10 μL of water, MeOH and DMSO were added to separate wells to serve as a growth control. Each test condition was tested in triplicate. The 96-well plate was covered and incubated overnight at 30 or 37 °C. Optical density (OD595) was measured using a HIDEX Sense microplate reader 425–301. The inhibitor concentration which reduced the growth by 50% was measured as the MIC50 of the compound. The set of analogues were tested for antimicrobial activity against laboratory strains of E. coli K12, B. subtilis W23, and Pseudomonas fluorescens Pf-5.

Escherichia coli K12 = test system: T2, Escherichia coli K12; assay: microbe, parasite or virus in culture; parameters: broth microdilution growth inhibition, OD595, overnight; MIC50 = concentration reducing growth by 50%; conditions: MIC50, 50% growth reduction
T2 construct: K12
Method: as §1

[1] = test system: T3, Pseudomonas fluorescens Pf-5; assay: microbe, parasite or virus in culture; parameters: broth microdilution growth inhibition, OD595, overnight; MIC50 = concentration reducing growth by 50%; conditions: PF5, MIC50, 50% growth reduction
T3 construct: Pf-5
Method: as §1

[2] = target: T4, translocase MraY (phospho-MurNAc-pentapeptide translocase) (Escherichia coli, UniProt P0A6W3); assay: biochemical; parameters: continuous fluorescence enhancement assay, dansyl-UDPMurNAc-pentapeptide to dansyl-lipid I, membranes overexpressing E. coli MraY
T4 construct: membranes containing overexpressed E. coli MraY
T4 sequence (P0A6W3 1-360): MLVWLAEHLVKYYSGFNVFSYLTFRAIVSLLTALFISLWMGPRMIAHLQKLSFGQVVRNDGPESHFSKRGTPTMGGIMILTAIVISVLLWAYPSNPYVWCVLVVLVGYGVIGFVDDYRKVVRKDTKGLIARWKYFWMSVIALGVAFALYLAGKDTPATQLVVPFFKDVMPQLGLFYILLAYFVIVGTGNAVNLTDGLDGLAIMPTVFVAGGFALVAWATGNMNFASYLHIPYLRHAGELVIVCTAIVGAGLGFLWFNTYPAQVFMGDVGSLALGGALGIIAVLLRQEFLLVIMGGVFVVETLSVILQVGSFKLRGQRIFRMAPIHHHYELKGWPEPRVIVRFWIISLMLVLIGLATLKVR
Method: UDP-MurNAc-L-Ala-γ-D-Glu-L-Lys-D-Ala-D-Ala was prepared enzymatically using the methods described by Lloyd et al.,[32] and was converted to UDP-MurNAc-L-Ala-γ-D-Glu-L-Lys(Nε-dansyl)-D-Ala-D-Ala using the method of Brandish et al.[5] The MraY-catalysed reaction was monitored on a HIDEX Sense microplate reader 425–301 (λex 340 nm, λem 530 nm). To monitor the formation of dansyl-lipid I, membranes containing overexpressed E. coli MraY (15 μL of 0.6 mg mL^−1 stock) were incubated with UDP-MurNAc-L-Ala-γ-D-Glu-L-Lys(Nε-dansyl)-D-Ala-D-Ala (25 μM), undecaprenyl phosphate (30 μM, from stock solution in […] Tris buffer pH 7.5 containing 2 mM β-mercaptoethanol, 1 mM MgCl2, 20% glycerol, 0.5% Triton X-100), in 100 mM Tris buffer pH 7.5 containing 25 mM MgCl2, in a total volume of 100 μL. Test compounds were assayed at 200 μM final concentration, in triplicate assays, and compound 6d was assayed at 25–200 μM concentration in triplicate assays. Tunicamycin (20 μM) was used as a positive control for enzyme inhibition assays. Membranes containing overexpressed E. coli R288L mutant MraY were prepared as described in Rodolis et al.[16] Radiochemical assays were carried out using membranes containing overexpressed E. coli MraY as described in Mihalyi et al.[19] The set of analogues were assayed against particulate E. coli MraY from overexpressed membranes, using a fluorescence enhancement assay with fluorescent substrate UDPMurNAc-L-Ala-γ-D-Glu-L-Lys(ε-N-dansyl)-D-Ala-D-Ala, used previously to assay MraY.[5,16,17]

[3] = target: T5, translocase MraY (phospho-MurNAc-pentapeptide translocase) (Escherichia coli, UniProt P0A6W3); assay: continuous fluorescence assay, % inhibition at […], overexpressed membranes; format: biochemical
T5 construct: membranes containing overexpressed E. coli MraY

[4] = target: T5, translocase MraY (phospho-MurNAc-pentapeptide translocase); assay: continuous fluorescence assay with dansyl-UDPMurNAc-pentapeptide, overexpressed membranes; format: biochemical
Source text: continuous fluorescence assay with dansyl-UDPMurNAc-pentapeptide, overexpressed membranes on translocase MraY (phospho-MurNAc-pentapeptide translocase) | highest enzyme inhibition shown by compound 6d.

SMILES	MIC50 (Bacillus subtilis W23) [µg/mL]	MIC50 (Escherichia coli K12) [µg/mL]	inhibition at 200 µM ([2]; continuous fluorescence assay) [%]	MIC50 [1] [µg/mL]	inhibition at 200 µM [3] [%]	IC50 [4] [µM]	inhibition at 200 µM ([2]; read-out: % MraY inhibition @200 μM) [%]
CCCCCCCCn1c(=O)nc(NCCNC(=N)N)n(Cc2ccc(C(F)(F)F)cc2)c1=O [7j]	1 (≈ 2.07 µM)	4 (≈ 8.27 µM)	43	16 (≈ 33.1 µM)			
CCCCCCCCn1c(=O)nc(NCCNC(=N)N)n(Cc2ccccc2OC)c1=O [7d]	4 (≈ 8.98 µM)	16 (≈ 35.9 µM)		> 256	57		
CCCCCCCCn1c(=O)nc(NCCNC(=N)N)n(Cc2ccc(Cl)cc2)c1=O [7f]	8 (≈ 17.8 µM)	8 (≈ 17.8 µM)	42	32 (≈ 71.1 µM)			
CCCCCCCCn1c(=O)nc(NCCN)n(Cc2ccc(C(F)(F)F)cc2)c1=O [6j]	32 (≈ 72.5 µM)	64 (≈ 145 µM)		> 256	59		
CCCCCCCCn1c(=O)nc(NCCNC(=N)N)n(Cc2ccc(F)cc2)c1=O [7e]	4 (≈ 9.23 µM)	16 (≈ 36.9 µM)		32 (≈ 73.8 µM)	63		
CCCCCCCCn1c(=O)nc(NCCN)n(Cc2ccc(Br)cc2)c1=O [6g]	16 (≈ 35.4 µM)	16 (≈ 35.4 µM)		64 (≈ 141 µM)	68		
CCCCCCCCn1c(=O)nc(NCCN)n(Cc2ccccc2OC)c1=O [6d]	32 (≈ 79.3 µM)	64 (≈ 159 µM)		> 256		48	80
CCCCCCCCn1c(=O)nc(NCCNC(=N)N)n(Cc2ccc([N+](=O)[O-])cc2)c1=O [7h]	32 (≈ 69.5 µM)	64 (≈ 139 µM)		256 (≈ 556 µM)	70		
CCCCCCCCn1c(=O)nc(NCCNC(=N)N)n(Cc2ccc(OC)cc2)c1=O [7b]	2 (≈ 4.49 µM)	16 (≈ 35.9 µM)	48	32 (≈ 71.8 µM)			
CCCCCCCCn1c(=O)nc(NCCNC(=N)N)n(Cc2ccc(Br)cc2)c1=O [7g]	4 (≈ 8.09 µM)	16 (≈ 32.4 µM)		256 (≈ 518 µM)	51		
CCCCCCCCn1c(=O)nc(NCCN)n(Cc2ccc([N+](=O)[O-])cc2)c1=O [6h]	32 (≈ 76.5 µM)	64 (≈ 153 µM)		> 256	63		
CCCCCCCCn1c(=O)nc(NCCNC(=N)N)n(Cc2cccc(OC)c2)c1=O [7c]	4 (≈ 8.98 µM)	16 (≈ 35.9 µM)		32 (≈ 71.8 µM)	57		
CCCCCCCCn1c(=O)nc(NCCN)n(C(CCc2ccccc2)c2ccccc2)c1=O (stereo not shown) [compound 13, 13]	128 (≈ 268 µM)	256 (≈ 536 µM)			64		

Now from value to molecule, other results behind:

MIC50 (Bacillus subtilis W23) [µg/mL]	MIC50 (Escherichia coli K12) [µg/mL]	inhibition at 200 µM ([2]; continuous fluorescence assay) [%]	SMILES	MIC50 [1] [µg/mL]	inhibition at 200 µM [3] [%]	IC50 [4] [µM]	inhibition at 200 µM ([2]; read-out: % MraY inhibition @200 μM) [%]
8 (≈ 19.8 µM)	16 (≈ 39.7 µM)	50	CCCCCCCCn1c(=O)nc(NCCN)n(Cc2ccc(OC)cc2)c1=O [6b]	32 (≈ 79.3 µM)			
8 (≈ 21.4 µM)	16 (≈ 42.8 µM)	36	CCCCCCCCn1c(=O)nc(NCCN)n(Cc2ccccc2)c1=O [6a]	64 (≈ 171 µM)			
4 (≈ 9.81 µM)	8 (≈ 19.6 µM)	15	CCCCCCCCn1c(=O)nc(NCCN)n(Cc2ccc(Cl)cc2)c1=O [6f]	64 (≈ 157 µM)			
> 256	> 256	39	CCCCCCCCn1c(=O)nc(NCCO)n(Cc2ccccc2)c1=O [compound 11]				
8 (≈ 19.3 µM)	16 (≈ 38.5 µM)	41	CCCCCCCCn1c(=O)nc(NCCNC(=N)N)n(Cc2ccccc2)c1=O [7a]	32 (≈ 77 µM)			
32 (≈ 79.3 µM)	64 (≈ 159 µM)	42	CCCCCCCCn1c(=O)nc(NCCN)n(Cc2cccc(OC)c2)c1=O [6c]	> 256			
128 (≈ 307 µM)	64 (≈ 154 µM)	39	CCCCCCCCn1c(=O)nc(NCCNC(N)=O)n(Cc2ccccc2)c1=O [compound 12]				
32 (≈ 81.7 µM)	64 (≈ 163 µM)	35	CCCCCCCCn1c(=O)nc(NCCN)n(Cc2ccc(F)cc2)c1=O [6e]	128 (≈ 327 µM)			
